According to patent EP0499926B1, “2-Substituted quinolines, process for their preparation as well as their use in medicaments” (BAYER AG, priority 1991, dated 1992):

Each compound was assayed on 5-LO (assay: Lipoxygenase inhibition: release of leukotriene B4 (LTB4) from human polymorphonuclear leukocytes (PMN) after addition of substance and Ca ionophore, reverse phase HPLC). Conditions: polymorphkernige Humanleukozyten (PMN), Ca-Ionophor.
Assay type: cell-based
Text: Die pharmakologischen Wirkungen der erfindungsgemäßen Substanzen werden durch folgende Methode bestimmt:
Als Maß für die Lipoxyenase-Hemmung wurde die Freisetzung von Leukotrien B4 (LTB4) an polymorphkernigen Humanleukozyten (PMN) nach Zugabe von Substanzen und Ca-Ionophor mittels reverse phase HPLC nach Borgeat, P. et al., Proc. Nat. Acad. Sci, 76, 2148 -2152 (1979), bestimmt.
In der Tabelle 1 sind beispielhaft die nach diesem Test erzielten Werte einiger erfindungsgemäßer Verbindungen aufgeführt: Tabelle 1
In the case of `COC(=O)C(c1ccc(OCc2ccc3ccccc3n2)c(F)c1)C1CCCC1` (stereo not shown) [Beispiel 1, 2-[3-Fluor4-(chinolin-2-methoxy)phenyl]-2-cyclopentylessigsäuremethylester], the IC50 is reported as 2500 nM.
Work on `O=C(O)C(c1ccc(OCc2ccc3ccccc3n2)c(F)c1)C1CCCC1` (stereo not shown) [Beispiel 27, 2-[3-Fluor-4-(chinolin-2-yl-methoxy)phenyl]-2-cyclopentylessigsäure] yielded an IC50 of 690 nM.
In the case of `O=C(O)C(c1ccc(OCc2ccc3ccccc3n2)c(-n2cccc2)c1)C1CCCCCC1` (stereo not shown) [Beispiel 40], the IC50 is reported as 790 nM.
In the case of `C=Cc1cc(C(C(=O)O)C2CCCC2)ccc1OCc1ccc2ccccc2n1` (stereo not shown) [Beispiel 41], the IC50 is reported as 560 nM.
